Data from PubChem BioAssay (NCI).
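1) Cells in 96-well plates. 2) Compound, 48 h, 5 concentrations. 3) Linear interpolation between surrounding doses. 4) Unreached endpoint = highest concentration. At the GI50, growth is halved. TGI: total growth inhibition.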

What was measured:
Assay in all cases: NCI anticancer screen, dose series, 48 h
786-0 renal = test system: 786-0 renal
SF-295 CNS = test system: SF-295 CNS
TK-10 renal = test system: TK-10 renal
OVCAR-3 ovarian = test system: OVCAR-3 ovarian
DU-145 prostate = test system: DU-145 prostate
UACC-257 melanoma = test system: UACC-257 melanoma
HCC-2998 colon = test system: HCC-2998 colon
LOX IMVI melanoma = test system: LOX IMVI melanoma
T-47D breast = test system: T-47D breast
ACHN renal = test system: ACHN renal

## CC[C@@]1(O)C(=O)OCc2c1cc1n(c2=O)Cc2c-1nc1ccc(O)cc1c2[Si](C)(C)C(C)(C)C
786-0 renal
  TGI: < 0.0255 µM
SF-295 CNS
  TGI: 1.32 µM
TK-10 renal
  TGI: > 92.7 µM
OVCAR-3 ovarian
  TGI: 0.0752 µM
DU-145 prostate
  TGI: 0.0142 µM
UACC-257 melanoma
  TGI: 0.681 µM
HCC-2998 colon
  TGI: 0.401 µM
LOX IMVI melanoma
  TGI: 0.163 µM

## CCCC[C@@H](C)/C=C1\CN2CCC[C@H]2[C@@](C)(OCc2ccccc2)[C@@H]1O
786-0 renal
  TGI: > 50 µM
T-47D breast
  TGI: > 19.3 µM
SF-295 CNS
  TGI: > 50 µM
TK-10 renal
  TGI: > 50 µM
OVCAR-3 ovarian
  TGI: > 28.7 µM
ACHN renal
  TGI: > 50 µM
DU-145 prostate
  TGI: > 19.3 µM
UACC-257 melanoma
  TGI: > 46.1 µM
HCC-2998 colon
  TGI: > 50 µM
LOX IMVI melanoma
  TGI: > 50 µM

## COC(C/C(=C/CO[Si](C(C)C)(C(C)C)C(C)C)C(=O)N(COCC[Si](C)(C)C)c1ccccc1I)OC
786-0 renal
  TGI: > 100 µM
T-47D breast
  TGI: > 100 µM
SF-295 CNS
  TGI: 17.4 µM
TK-10 renal
  TGI: > 100 µM
OVCAR-3 ovarian
  TGI: 46 µM
ACHN renal
  TGI: > 100 µM
DU-145 prostate
  TGI: > 100 µM
UACC-257 melanoma
  TGI: 69.9 µM
HCC-2998 colon
  TGI: > 100 µM
LOX IMVI melanoma
  TGI: 37.8 µM

## O[C@@H]1C=C[C@]23CCN(Cc4cc5c(cc42)OCO5)[C@@H]3C1
786-0 renal
  TGI: > 100 µM
T-47D breast
  TGI: > 100 µM
SF-295 CNS
  TGI: > 100 µM
TK-10 renal
  TGI: > 100 µM
OVCAR-3 ovarian
  TGI: > 100 µM
ACHN renal
  TGI: > 100 µM
DU-145 prostate
  TGI: > 100 µM
UACC-257 melanoma
  TGI: > 100 µM
LOX IMVI melanoma
  TGI: > 100 µM

## COC(=O)[C@@H]1CS(=O)(=O)C(C(C)C)N1C(C)=O (some centres undefined)
786-0 renal
  TGI: > 100 µM
T-47D breast
  TGI: > 100 µM
SF-295 CNS
  TGI: > 100 µM
TK-10 renal
  TGI: > 100 µM
OVCAR-3 ovarian
  TGI: > 100 µM
ACHN renal
  TGI: > 100 µM
DU-145 prostate
  TGI: > 100 µM
UACC-257 melanoma
  TGI: > 100 µM
HCC-2998 colon
  TGI: > 100 µM
LOX IMVI melanoma
  TGI: > 100 µM

## Cc1cn(C2CCC(CO)(CF)O2)c(=O)[nH]c1=O (centres undefined)
786-0 renal
  TGI: > 100 µM
T-47D breast
  TGI: > 100 µM
SF-295 CNS
  TGI: > 100 µM
TK-10 renal
  TGI: > 100 µM
OVCAR-3 ovarian
  TGI: > 100 µM
ACHN renal
  TGI: > 100 µM
DU-145 prostate
  TGI: > 100 µM
UACC-257 melanoma
  TGI: > 100 µM
HCC-2998 colon
  TGI: > 100 µM
LOX IMVI melanoma
  TGI: > 100 µM

## Cn1nc2ccc(Nc3cc(=O)[nH]c4ccc5nn(C)nc5c34)cc2n1
786-0 renal
  TGI: > 100 µM
T-47D breast
  TGI: > 100 µM
SF-295 CNS
  TGI: > 100 µM
TK-10 renal
  TGI: > 100 µM
OVCAR-3 ovarian
  TGI: > 100 µM
ACHN renal
  TGI: > 100 µM
DU-145 prostate
  TGI: > 100 µM
UACC-257 melanoma
  TGI: > 100 µM
HCC-2998 colon
  TGI: > 100 µM

## FC(F)(F)c1cc(N(C2c3ccccc3C=Cc3ccccc32)P(Cl)Cl)cc(C(F)(F)F)c1
786-0 renal
  TGI: 35.5 µM
T-47D breast
  TGI: 56.4 µM
SF-295 CNS
  TGI: 41.8 µM
TK-10 renal
  TGI: > 100 µM
OVCAR-3 ovarian
  TGI: 31.1 µM
ACHN renal
  TGI: 33.9 µM
DU-145 prostate
  TGI: 40.3 µM
UACC-257 melanoma
  TGI: 39.9 µM
LOX IMVI melanoma
  TGI: 36.1 µM

## COc1cc2cc(C(=O)N3CC(COS(C)(=O)=O)c4ccc(NC(=O)OCc5ccccc5)cc43)[nH]c2c(OC)c1OC (centres undefined)
786-0 renal
  TGI: > 100 µM
T-47D breast
  TGI: > 100 µM
SF-295 CNS
  TGI: > 100 µM
TK-10 renal
  TGI: > 100 µM
OVCAR-3 ovarian
  TGI: > 100 µM
ACHN renal
  TGI: > 100 µM
DU-145 prostate
  TGI: > 100 µM
UACC-257 melanoma
  TGI: > 100 µM
HCC-2998 colon
  TGI: > 100 µM
LOX IMVI melanoma
  TGI: > 100 µM

## Cc1cc(C)c2c(c1)CC1(Cc3cc(C)c(C)cc3C1=O)C2=O (centres undefined)
786-0 renal
  TGI: > 100 µM
T-47D breast
  TGI: > 100 µM
SF-295 CNS
  TGI: > 100 µM
TK-10 renal
  TGI: > 100 µM
OVCAR-3 ovarian
  TGI: > 100 µM
ACHN renal
  TGI: > 100 µM
DU-145 prostate
  TGI: > 100 µM
UACC-257 melanoma
  TGI: > 100 µM
HCC-2998 colon
  TGI: > 100 µM
LOX IMVI melanoma
  TGI: > 100 µM

## C[C@@H]1[C@@H](C)C(c2ccccc2)O[Si]1(C(C)(C)C)C(C)(C)C (some centres undefined)
786-0 renal
  TGI: 29.4 µM
T-47D breast
  TGI: 37.2 µM
SF-295 CNS
  TGI: 30.2 µM
TK-10 renal
  TGI: 29.9 µM
OVCAR-3 ovarian
  TGI: 30.1 µM
ACHN renal
  TGI: 31.5 µM
DU-145 prostate
  TGI: 31.6 µM
UACC-257 melanoma
  TGI: 37.5 µM
HCC-2998 colon
  TGI: > 55.8 µM
LOX IMVI melanoma
  TGI: 30.9 µM

## C1=C(c2ccccc2)C(N2CCOCC2)Oc2ccccc21 (centres undefined)
786-0 renal
  TGI: > 100 µM
T-47D breast
  TGI: > 100 µM
SF-295 CNS
  TGI: > 100 µM
TK-10 renal
  TGI: > 100 µM
OVCAR-3 ovarian
  TGI: > 100 µM
ACHN renal
  TGI: > 100 µM
DU-145 prostate
  TGI: > 100 µM
UACC-257 melanoma
  TGI: > 100 µM
HCC-2998 colon
  TGI: > 100 µM
LOX IMVI melanoma
  TGI: > 100 µM

## N#CC(CCN1CCC(Nc2ccccc2)(c2nnnn2C2CCCCC2)CC1)(c1ccccc1)c1ccccc1
786-0 renal
  TGI: > 100 µM
SF-295 CNS
  TGI: > 100 µM
TK-10 renal
  TGI: > 100 µM
OVCAR-3 ovarian
  TGI: > 100 µM
ACHN renal
  TGI: > 100 µM
DU-145 prostate
  TGI: > 100 µM
UACC-257 melanoma
  TGI: > 100 µM
HCC-2998 colon
  TGI: > 100 µM
LOX IMVI melanoma
  TGI: > 100 µM

## c1nc(NCCc2cnc[nH]2)c2[nH]cnc2n1
786-0 renal
  TGI: > 100 µM
T-47D breast
  TGI: > 100 µM
SF-295 CNS
  TGI: > 100 µM
TK-10 renal
  TGI: > 100 µM
OVCAR-3 ovarian
  TGI: > 100 µM
ACHN renal
  TGI: > 100 µM
DU-145 prostate
  TGI: > 100 µM
UACC-257 melanoma
  TGI: > 100 µM
LOX IMVI melanoma
  TGI: > 100 µM

## O=C(O)CCC(=O)OCN1C(=O)C2C3C=CC(C2C1=O)C1C2C(=O)N(COC(=O)CCC(=O)O)C(=O)C2C31 (centres undefined)
786-0 renal
  TGI: > 100 µM
SF-295 CNS
  TGI: > 100 µM
TK-10 renal
  TGI: > 100 µM
OVCAR-3 ovarian
  TGI: > 100 µM
ACHN renal
  TGI: > 100 µM
UACC-257 melanoma
  TGI: > 100 µM
HCC-2998 colon
  TGI: > 100 µM
LOX IMVI melanoma
  TGI: > 63 µM

## O=P1(N2CCOCC2)OCCO1
786-0 renal
  TGI: > 100 µM
SF-295 CNS
  TGI: > 100 µM
ACHN renal
  TGI: > 100 µM
DU-145 prostate
  TGI: > 100 µM
UACC-257 melanoma
  TGI: > 100 µM
HCC-2998 colon
  TGI: > 100 µM
LOX IMVI melanoma
  TGI: > 100 µM

## O=c1c2cc(C(F)(F)F)ccc2sc2c(NCCCNCCO)nc3ccccc3c12
SF-295 CNS
  GI50: 1.81 µM
  TGI: 3.3 µM
OVCAR-3 ovarian
  GI50: 1.68 µM
  TGI: 3.17 µM
ACHN renal
  GI50: 1.51 µM
  TGI: 2.86 µM
DU-145 prostate
  GI50: 1.74 µM
  TGI: 3.23 µM
HCC-2998 colon
  GI50: 1.67 µM
  TGI: 3.29 µM
LOX IMVI melanoma
  GI50: 1.35 µM
  TGI: 2.7 µM

## O=C(CCN1CCOCC1)/C(=C/c1ccccc1)c1ccccc1
SF-295 CNS
  TGI: 25.7 µM
OVCAR-3 ovarian
  TGI: 13.5 µM
UACC-257 melanoma
  TGI: 9.72 µM
HCC-2998 colon
  TGI: 28.3 µM
LOX IMVI melanoma
  TGI: 7.42 µM

## O=c1[nH]c(=O)n(C2CC(O)C(CO)O2)cc1Oc1ccccc1 (centres undefined)
786-0 renal
  TGI: > 100 µM
T-47D breast
  TGI: > 100 µM
SF-295 CNS
  TGI: > 100 µM
TK-10 renal
  TGI: > 100 µM
OVCAR-3 ovarian
  TGI: > 100 µM
ACHN renal
  TGI: > 100 µM
DU-145 prostate
  TGI: > 100 µM
UACC-257 melanoma
  TGI: > 100 µM
LOX IMVI melanoma
  TGI: > 100 µM

## C1=NCCNCCNCCN=Cc2ccc(cc2)OCc2cccc(n2)COc2ccc1cc2
786-0 renal
  TGI: > 100 µM
T-47D breast
  TGI: > 100 µM
SF-295 CNS
  TGI: > 100 µM
OVCAR-3 ovarian
  TGI: > 100 µM
ACHN renal
  TGI: > 100 µM
DU-145 prostate
  TGI: > 100 µM
UACC-257 melanoma
  TGI: > 100 µM

## Cc1ccc(S(=O)(=O)NC(CCC(=O)NNc2ccccc2)C(=O)NNc2ccccc2)cc1 (centres undefined)
786-0 renal
  TGI: > 100 µM
T-47D breast
  TGI: > 100 µM
SF-295 CNS
  TGI: > 100 µM
TK-10 renal
  TGI: 46.5 µM
OVCAR-3 ovarian
  TGI: > 100 µM
ACHN renal
  TGI: > 100 µM
UACC-257 melanoma
  TGI: > 100 µM
LOX IMVI melanoma
  TGI: > 100 µM
